Measured values reported in patent US9586949B2, “Aza-heteroaryl compounds as PI3K-gamma inhibitors” (Incyte Corporation, priority 2015, dated 2017).

Legend:
[1] = biological target: PI3Kδ (p110δ/p85α) Recombinant Human Protein (Homo sapiens (Human), UniProt O00329); test: PI3Kδ Scintillation Proximity Assay; type: biochemical; settings: 20 μM PIP2, 2 μM ATP, 3.4 nM PI3Kδ, 120 min; read-out: PI3K-delta SPA IC50
[2] = tested on: Phosphorylated Ribosomal Protein S6 (RPS6); test: THP-1 RPS6 ELISA Assay; type: cell-based, Human; settings: THP-1 cells, serum starved, 2 hours with compound, 10 nM MCP-1 for 15 minutes; read-out: THP p-RPS6 ELISA IC50
Procedure: To measure the Phosphorylated Ribosomal Protein S6 (RPS6) in cell lysates, THP-1 cells (Human Acute Monocytic Leukemia) are purchased from ATCC (Manassas, Va.) and maintained in RPMI with 10% FBS (Gibco/Life Technologies, Carlsbad, Calif.). For the assay, THP-1 cells are serum starved overnight in RPMI, then plated in RPMI (2×10^5 cells/well in 90 μL) into 96-well flat-bottom tissue culture treated plates (Corning, Corning, N.Y.), in the presence or absence of a concentration range of test compounds. Covered plates are incubated for 2 hours at 37° C., 5% CO2 then treated with or without 10 nM MCP-1 (MYBioSource, San Diego, Calif.) for 15 minutes at 37° C., 5% CO2. Plates are centrifuged at 1600 RPM and supernatants are removed. Cells are lysed in Lysis Buffer (Cell Signaling, Danvers, Mass.) with Protease Inhibitor (Calbiochem/EMD, Germany), PMSF (Sigma, St Louis Mo.), HALTS (Thermo Fisher, Rockford, Ill.) for 30 min on wet ice. Cell lysates are frozen at −80° C. before testing. The lysates are tested in the Human/Mouse/Rat Phospho-RPS6 ELISA (R&D Systems, Inc. Minn, Minn.). The plate is measured using a microplate reader (SpectraMax M5-Molecular Devices, LLC Sunnyvale, Calif.) set to 450 nm with a wavelength correction of 540. […]

Sequence of PI3Kδ (p110δ/p85α) Recombinant Human Protein (O00329 whole entry): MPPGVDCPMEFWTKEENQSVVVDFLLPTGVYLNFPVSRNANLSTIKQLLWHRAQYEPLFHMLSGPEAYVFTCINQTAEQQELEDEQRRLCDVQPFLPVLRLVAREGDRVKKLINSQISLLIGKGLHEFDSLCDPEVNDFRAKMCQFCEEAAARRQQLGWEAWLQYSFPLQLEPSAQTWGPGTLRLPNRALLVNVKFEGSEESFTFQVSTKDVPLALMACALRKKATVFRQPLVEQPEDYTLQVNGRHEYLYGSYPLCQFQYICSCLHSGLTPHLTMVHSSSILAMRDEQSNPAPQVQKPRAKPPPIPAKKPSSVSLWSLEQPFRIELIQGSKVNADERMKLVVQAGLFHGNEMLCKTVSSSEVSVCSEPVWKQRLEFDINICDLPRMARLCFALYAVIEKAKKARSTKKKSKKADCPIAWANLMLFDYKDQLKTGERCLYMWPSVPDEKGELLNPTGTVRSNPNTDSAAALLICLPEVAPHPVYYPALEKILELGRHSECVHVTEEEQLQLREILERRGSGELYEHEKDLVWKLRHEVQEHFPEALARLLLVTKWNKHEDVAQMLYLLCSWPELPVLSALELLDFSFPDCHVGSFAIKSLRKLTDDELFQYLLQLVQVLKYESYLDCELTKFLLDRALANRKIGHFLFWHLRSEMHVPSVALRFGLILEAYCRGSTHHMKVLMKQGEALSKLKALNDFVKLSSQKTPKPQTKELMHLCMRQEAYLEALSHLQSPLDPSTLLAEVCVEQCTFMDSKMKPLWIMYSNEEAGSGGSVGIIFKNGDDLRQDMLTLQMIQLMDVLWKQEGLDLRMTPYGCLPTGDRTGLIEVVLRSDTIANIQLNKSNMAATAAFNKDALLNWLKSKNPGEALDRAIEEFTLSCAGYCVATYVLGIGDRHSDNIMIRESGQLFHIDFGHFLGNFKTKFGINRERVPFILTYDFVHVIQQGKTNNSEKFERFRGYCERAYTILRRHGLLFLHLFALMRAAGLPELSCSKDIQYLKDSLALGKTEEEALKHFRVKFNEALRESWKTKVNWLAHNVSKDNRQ
Sequence of PI3Kδ (p110δ/p85α) Recombinant Human Protein (P27986 whole entry partner): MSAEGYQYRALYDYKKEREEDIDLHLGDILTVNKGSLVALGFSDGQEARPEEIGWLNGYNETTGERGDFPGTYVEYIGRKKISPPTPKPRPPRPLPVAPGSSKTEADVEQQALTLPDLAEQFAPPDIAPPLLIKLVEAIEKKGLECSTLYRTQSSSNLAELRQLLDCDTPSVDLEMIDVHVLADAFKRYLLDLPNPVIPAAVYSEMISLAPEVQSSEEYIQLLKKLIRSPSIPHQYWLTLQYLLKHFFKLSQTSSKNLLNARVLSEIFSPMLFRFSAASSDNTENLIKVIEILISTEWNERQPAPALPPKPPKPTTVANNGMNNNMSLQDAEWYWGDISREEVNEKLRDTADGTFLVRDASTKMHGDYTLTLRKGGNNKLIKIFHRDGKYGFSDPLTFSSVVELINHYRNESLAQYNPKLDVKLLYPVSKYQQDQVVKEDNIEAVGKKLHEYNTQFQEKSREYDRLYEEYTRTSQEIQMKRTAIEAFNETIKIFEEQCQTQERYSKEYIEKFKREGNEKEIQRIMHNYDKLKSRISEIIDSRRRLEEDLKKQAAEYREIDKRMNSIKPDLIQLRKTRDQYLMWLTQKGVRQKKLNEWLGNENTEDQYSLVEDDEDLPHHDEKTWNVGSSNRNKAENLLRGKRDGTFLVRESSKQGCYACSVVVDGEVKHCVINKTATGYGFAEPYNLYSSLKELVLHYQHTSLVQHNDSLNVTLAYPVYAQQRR

IC50 [1]: < 1000 nM
IC50 [2]: ≥ 5000 nM
Substance: N-(5-(2-(1H- Benzo[d]imidazol-2- yl)benzo[d]oxazol- 6-yl)pyridin-3- yl)ethanesulfonamide [Example 18]
